Reference: article PMC7822030, “Hybrid Inhibitors of DNA Gyrase A and B: Design, Synthesis and Evaluation” (Pharmaceutics, 2020)
Where two headings read alike, the source gives them in different places.

Key:
E. coli DNA gyrase = biological target: T1, E. coli DNA gyrase (Escherichia coli, UniProt P0AES4+P0AES6); experiment: E. coli DNA gyrase supercoiling assay; assay type: biochemical
T1 construct: purchased Inspiralis, Norwich, UK

E. coli topoisomerase IV = biological target: T2, E. coli topoisomerase IV (Escherichia coli, UniProt P0AFI2+P20083); experiment: E. coli topoisomerase IV relaxation assay; assay type: biochemical; conditions: for Inhibition of topoisomerase IV (in words): relaxation assay
T2 construct: purchased Inspiralis, Norwich, UK

A. baumannii ATCC 17978 = experiment: MIC broth microdilution, A. baumannii; assay type: cell-based; conditions: Acinetobacter baumannii, ATCC17978, read-out: MIC A. baumannii ATCC #
In short: (§1)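 OD600 after incubation defined growth inhibition in serial broth microdilution following CLSI guidelines. Medium was cation-adjusted Mueller Hinton II broth, seeded at 5 × 10^4 cells per well.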

P. aeruginosa ATCC 27863 = experiment: MIC broth microdilution, P. aeruginosa; assay type: cell-based; conditions: Pseudomonas aeruginosa
In short: (§2)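 Compounds were serially diluted in cation-adjusted MHBII, then each well received 5 × 10^4 bacteria. Plates were bagged to limit evaporation during incubation, and OD600 was then read. Measurements ran in three parallel replicates.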

K. pneumoniae ATCC 10031 = experiment: MIC broth microdilution, K. pneumoniae; assay type: cell-based; conditions: Klebsiella pneumoniae, ATCC10031, read-out: MIC K. pneumoniae ATCC #
In short: as §1

[1] = system: E. cloacae spp. cloacae ATCC 13047; experiment: MIC broth microdilution, E. cloacae; assay type: cell-based, Enterobacter cloacae; conditions: Enterobacter cloacae, ATCC13047, read-out: MIC E. cloacae spp. cloacae ATCC #
E. coli ATCC 25922 = experiment: MIC broth microdilution, E. coli ATCC 25922; assay type: cell-based; conditions: Escherichia coli, ATCC25922, read-out: MIC E. coli ATCC #
In short: as §1

E. coli BW25113 WT = experiment: MIC, E. coli BW25113 wild-type; assay type: cell-based; conditions: Escherichia coli, BW25113, read-out: Minimum Inhibitory Concentration E. coli BW# WT
In short: as §1

E. coli BW25113 ΔacrB = assay type: cell-based, Escherichia coli
In short: as §2

E. coli BW25113 ΔdapF = assay type: cell-based, Escherichia coli
In short: as §2

E. coli BW25113 ΔmrcB = assay type: cell-based, Escherichia coli
In short: as §2

E. coli BW25113 ΔsurA = assay type: cell-based, Escherichia coli
In short: as §2

E. coli BW25113 ΔtolC = assay type: cell-based, Escherichia coli
In short: as §2

E. coli MG1655 WT = experiment: MIC, E. coli MG1655 wild-type with PAβN; assay type: cell-based, Escherichia coli; conditions: for MIC: Escherichia coli, MG1655, read-out: Minimum Inhibitory Concentration E. coli MG# WT, 50 µg/mL PAβN, molar conversion in parentheses; for Minimum Inhibitory Concentration E. coli MG1655 WT: in the presence of 50 µg/mL PAβN
[2] = system: E. coli MG1655 GyrA S83L, D87N ParC S80I, E84G; experiment: microbe, parasite or virus in culture; assay type: cell-based, Escherichia coli; conditions: for MIC: Escherichia coli, MG1655, read-out: Minimum Inhibitory Concentration E. coli MG# GyrA S83L, D87N ParC S80I, E84G; for Minimum Inhibitory Concentration E. coli MG1655 GyrA S83L, D87N ParC S80I, E84G: in the presence of 50 µg/mL PAβN
[3] = system: E. coli MG1655 GyrB R136C; experiment: microbe, parasite or virus in culture; assay type: cell-based, Escherichia coli; conditions: for MIC: Escherichia coli, MG1655, read-out: Minimum Inhibitory Concentration E. coli MG# GyrB R#C; for Minimum Inhibitory Concentration E. coli MG1655 GyrB R136C: in the presence of 50 µg/mL PAβN
[4] = molar conversion in parentheses
[5] = ATCC27863, 18 h, read-out: MIC P. aeruginosa ATCC #
[6] = ATCC27863, read-out: MIC P. aeruginosa ATCC #, molar conversion in parentheses, read-out: MIC P. aeruginosa ATCC 27863

Compound | IC50 (E. coli DNA gyrase) | IC50 (E. coli topoisomerase IV) | Inhibition of topoisomerase IV (in words) (E. coli topoisomerase IV) | MIC (A. baumannii ATCC 17978; broth microdilution, 18 h) | MIC (A. baumannii ATCC 17978; [4]) | MIC (P. aeruginosa ATCC 27863; [5]) | MIC (P. aeruginosa ATCC 27863; [6]) | MIC (K. pneumoniae ATCC 10031; broth microdilution, 18 h) | MIC (K. pneumoniae ATCC 10031; [4]) | MIC ([1]; broth microdilution, 18 h) | MIC [1, 4] | MIC (E. coli ATCC 25922; broth microdilution, 18 h) | MIC (E. coli ATCC 25922; [4]) | MIC (E. coli BW25113 WT; [4]) | MIC (E. coli BW25113 WT; wild-type) | Minimum Inhibitory Concentration E. coli BW25113 ΔacrB (E. coli BW25113 ΔacrB; efflux pump mutant) | Minimum Inhibitory Concentration E. coli BW25113 ΔacrB (E. coli BW25113 ΔacrB; [4]) | Minimum Inhibitory Concentration E. coli BW25113 ΔdapF (E. coli BW25113 ΔdapF; impaired cell-wall mutant) | Minimum Inhibitory Concentration E. coli BW25113 ΔdapF (E. coli BW25113 ΔdapF; [4]) | Minimum Inhibitory Concentration E. coli BW25113 ΔmrcB (E. coli BW25113 ΔmrcB; impaired cell-wall mutant) | also measured
Cc1[nH]c(C(=O)Nc2nc3ccc(C(=O)N4CCN(c5cc6c(cc5F)c(=O)c(C(=O)O)cn6C5CC5)CC4)cc3s2)c(Cl)c1Cl [Compound 3a, 1-Cyclopropyl-7-(4-(2-(3,4-dichloro-5-methyl-1H-pyrrole-2-carboxamido)benzo[d]thiazole-6-carbonyl)piperazin-1-yl)-6-fluoro-4-oxo-1,4-dihydroquinoline-3-carboxylic acid] | 450 ± 180 nM | 1000 ± 150 nM | low micromolar | 16 µg/mL | 23.4 µM | 64 µg/mL | 93.6 µM | 0.5 µg/mL | 0.73 µM | 4 µg/mL | 5.85 µM | 2 µg/mL | 2.93 µM | 5.85 µM | 4 µg/mL | 4 µg/mL | (5.85 µM) | 4 µg/mL | (5.85 µM) | 4 µg/mL | Minimum Inhibitory Concentration E. coli BW25113 ΔmrcB (E. coli BW25113 ΔmrcB; [4]): (5.85 µM); Minimum Inhibitory Concentration E. coli BW25113 ΔsurA (E. coli BW25113 ΔsurA; impaired cell-wall mutant): 4 µg/mL; Minimum Inhibitory Concentration E. coli BW25113 ΔsurA (E. coli BW25113 ΔsurA; [4]): (5.85 µM); Minimum Inhibitory Concentration E. coli BW25113 ΔtolC (E. coli BW25113 ΔtolC; efflux pump mutant): 1 µg/mL; MIC change, ΔtolC mutant versus wild-type E. coli BW25113 (E. coli BW25113 ΔtolC; improvement of MIC in impaired efflux pump mutant): 4 fold; Minimum Inhibitory Concentration E. coli BW25113 ΔtolC (E. coli BW25113 ΔtolC; [4]): (1.46 µM); MIC (E. coli MG1655 WT): 0.73 µM; Minimum Inhibitory Concentration E. coli MG1655 WT (E. coli MG1655 WT): 0.5 µg/mL; MIC [2]: 23.4 µM; Minimum Inhibitory Concentration E. coli MG1655 GyrA S83L, D87N ParC S80I, E84G [2]: 16 µg/mL; MIC [3]: 0.73 µM; Minimum Inhibitory Concentration E. coli MG1655 GyrB R136C [3]: 0.5 µg/mL; melting point: > 300 °C
Cc1[nH]c(C(=O)Nc2nc3ccc(C(=O)NCCOCCN4CCN(c5cc6c(cc5F)c(=O)c(C(=O)O)cn6C5CC5)CC4)cc3s2)c(Cl)c1Cl.Cl [Compound 11a, 4-(3-Carboxy-1-cyclopropyl-6-fluoro-4-oxo-1,4-dihydroquinolin-7-yl)-1-(2-(2-(2-(3,4-dichloro-5-methyl-1H-pyrrole-2-carboxamido)benzo[d]thiazole-6-carboxamido)ethoxy)ethyl)piperazin-1-ium chloride] | 130 ± 30 nM | > 10000 nM | lack of activity | > 64 µg/mL | > 82.9 µM | > 64 µg/mL | > 82.9 µM | 4 µg/mL | 5.18 µM | 64 µg/mL | 82.9 µM | 32 µg/mL | 41.5 µM | 41.5 µM | 32 µg/mL | 32 µg/mL | (41.5 µM) | 32 µg/mL | (41.5 µM) | 32 µg/mL | Minimum Inhibitory Concentration E. coli BW25113 ΔmrcB (E. coli BW25113 ΔmrcB; [4]): (41.5 µM); Minimum Inhibitory Concentration E. coli BW25113 ΔsurA (E. coli BW25113 ΔsurA; impaired cell-wall mutant): 16 µg/mL; Minimum Inhibitory Concentration E. coli BW25113 ΔsurA (E. coli BW25113 ΔsurA; [4]): (20.7 µM); Minimum Inhibitory Concentration E. coli BW25113 ΔtolC (E. coli BW25113 ΔtolC; efflux pump mutant): 0.5 µg/mL; Minimum Inhibitory Concentration E. coli BW25113 ΔtolC (E. coli BW25113 ΔtolC; [4]): (0.65 µM); MIC (E. coli MG1655 WT): 0.65 µM; Minimum Inhibitory Concentration E. coli MG1655 WT (E. coli MG1655 WT): 0.5 µg/mL; MIC [2]: 10.4 µM; Minimum Inhibitory Concentration E. coli MG1655 GyrA S83L, D87N ParC S80I, E84G [2]: 8 µg/mL; MIC [3]: 0.65 µM; Minimum Inhibitory Concentration E. coli MG1655 GyrB R136C [3]: 0.5 µg/mL; melting point: 187 to 190 °C
